The values below are quoted from earlier work in patent US11160278B2, “Use of active substances for controlling virus infection in plants” (Bayer CropScience Aktiengesellschaft, priority 2016, dated 2021).

Data set [1] concerns tobacco mosaic virus (TMV). To be noted: also NahG transgenic tobacco.
The subject of data set [2] is Pseudomonas syringae pv tabaci.

For the compound `COC(=O)N(OC)c1ccccc1COc1ccn(-c2ccc(Cl)cc2)n1` [Pyraclostrobin], in data set [1], the “resistance of tobacco against infection by TMV” value is “enhance the resistance”. In addition, the “resistance of tobacco against infection by Pseudomonas syringae pv tabaci” value in data set [2] is listed as “enhance the resistance”.
